The text below walks through data of ChEMBL document CHEMBL5316285 (J Med Chem, 2023).

The structures appear in SMILES notation. Activity calls are given as the source filed them. No cut-off for these calls is given here. A value given as a limit tells only on which side of the number the result lay.

For data set [1], the target named is T1, von Hippel-Lindau disease tumor suppressor/Nicotinamide phosphoribosyltransferase (Homo sapiens, UniProt P43490+P40337). Put plainly: Protac activity at VHL/NAMPT in human A2780 cells assessed as degradation of NAMPT using NAM as substrate preincubated for 5 mins followed by substrate addition measured after 5 mins in presence of ATP by luminesence based microplate reader analysis. Format: cell-based.
Target sequence in this assay (P43490 whole entry): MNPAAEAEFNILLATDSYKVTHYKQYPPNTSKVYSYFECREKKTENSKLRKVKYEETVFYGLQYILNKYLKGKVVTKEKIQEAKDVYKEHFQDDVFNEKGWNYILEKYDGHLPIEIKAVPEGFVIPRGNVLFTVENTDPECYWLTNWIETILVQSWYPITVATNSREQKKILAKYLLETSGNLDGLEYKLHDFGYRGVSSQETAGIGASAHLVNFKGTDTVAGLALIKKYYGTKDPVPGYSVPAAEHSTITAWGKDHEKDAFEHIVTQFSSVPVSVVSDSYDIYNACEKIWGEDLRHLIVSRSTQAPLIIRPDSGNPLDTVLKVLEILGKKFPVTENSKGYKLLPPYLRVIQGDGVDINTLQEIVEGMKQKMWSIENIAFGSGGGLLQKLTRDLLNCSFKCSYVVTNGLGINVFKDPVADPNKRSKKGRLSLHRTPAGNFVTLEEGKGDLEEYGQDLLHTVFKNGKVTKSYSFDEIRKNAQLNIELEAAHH
Target sequence in this assay (P40337 whole entry): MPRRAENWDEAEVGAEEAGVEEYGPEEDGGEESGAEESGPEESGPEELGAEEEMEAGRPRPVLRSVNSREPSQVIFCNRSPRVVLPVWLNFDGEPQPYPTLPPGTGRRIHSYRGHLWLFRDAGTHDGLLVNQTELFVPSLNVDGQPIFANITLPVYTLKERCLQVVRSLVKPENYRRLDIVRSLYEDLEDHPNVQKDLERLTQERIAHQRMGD

Data set [2] concerns the target Nicotinamide phosphoribosyltransferase (Homo sapiens, UniProt P43490). Put plainly: Inhibition of NAMPT (unknown origin) using NAM as substrate preincubated for 5 mins followed by substrate addition measured after 15 mins in presence of ATP by fluorescence based microplate reader analysis.
The subject of data set [3] is A2780. Kind of data set: Antiproliferative activity against human A2780 cells incubated for 72 hrs in carbon-dioxide atmosphere measured by cell counting kit-8 method. In kind it is functional, cell-based. Conditions: A2780, 72 h. A general note: Tetrazolium dyes change colour on reduction, which living cells bring about.
Data set [4] has as its target T1, von Hippel-Lindau disease tumor suppressor/Nicotinamide phosphoribosyltransferase. Kind of data set: Protac activity at VHL/NAMPT in human A2780 cells assessed as induction of NAMPT degradation measured at 500 to 5000 nM after 24 hrs by Western blotting analysis. In kind it is cell-based. As to conditions: dose 500-5000 nM. A general note: Immunoblotting shows a protein as a band on a membrane.
Target sequence in this assay (P40337 whole entry, looked up): as the sequence (P40337 whole entry) above
Target sequence in this assay (P43490 whole entry, looked up): as the sequence (P43490 whole entry) above

Data set [5] shares this target. Kind of data set: Protac activity at VHL/NAMPT in human A2780 cells assessed as induction of NAMPT degradation measured at 5 to 50 nM after 24 hrs by Western blotting analysis. Format: cell-based. As to conditions: dose 5-50 nM.
Target sequence in this assay (P40337 whole entry, looked up): as the sequence (P40337 whole entry) above
Target sequence in this assay (P43490 whole entry, looked up): as the sequence (P43490 whole entry) above
Data set [6] has the same target. Put plainly: Protac activity at VHL/NAMPT in human A2780 cells assessed as induction of NAMPT degradation measured at 0.2 to 500 nM after 24 hrs by Western blotting analysis. Format: cell-based. As to conditions: dose 0.2-500 nM.
Target sequence in this assay (P40337 whole entry, looked up): as the sequence (P40337 whole entry) above
Target sequence in this assay (P43490 whole entry, looked up): as the sequence (P43490 whole entry) above
The test system of the next data set is CT26. Kind of data set: Antiproliferative activity against mouse CT26 cells. Format: functional, cell-based.
In data set [7] the test system is A2780. Kind of data set: Antitumor activity against human A2780 cells xenografted in nude mouse assessed as tumor growth inhibition at 2 uM/Kg, IV once every 3 days upto 21 days relative to control. Format: functional. Conditions: time 21 day, at 2 µmol/kg.
A short description of data set [8]: Retinal toxicity in nude mouse xenografted with human A2780 cells at 2 uM/Kg, IV once every 3 days upto 21 days by microscopic analysis. As to conditions: 504 h, time 21 day. Background: In xenograft studies the graft and the host belong to different species.
Data set [9] concerns the target T1, von Hippel-Lindau disease tumor suppressor/Nicotinamide phosphoribosyltransferase. Put plainly: Protac activity at VHL/NAMPT in human A2780 cells assessed as reduction of NAMPT protein level at 0.1 to 100 nM measured after 24 hrs by Western blotting analysis. Format: cell-based. Conditions: dose 0.1-100 nM.
Target sequence in this assay (P40337 whole entry, looked up): as the sequence (P40337 whole entry) above
Target sequence in this assay (P43490 whole entry, looked up): as the sequence (P43490 whole entry) above
Data set [10] is described as follows: Toxicity in nude mouse xenografted with human A2780 cells assessed as pathological damage in kidney at 2 uM/Kg, IV once every 3 days upto 21 days by hematoxylin and eosin staining analysis. Format: tissue-based. As to conditions: 504 h, time 21 day.
Data set [11] is described as follows: Toxicity in nude mouse xenografted with human A2780 cells assessed as pathological damage in lung at 2 uM/Kg, IV once every 3 days upto 21 days by hematoxylin and eosin staining analysis. In kind it is tissue-based. Conditions: 504 h, time 21 day.
Data set [12] can be described thus: Toxicity in nude mouse xenografted with human A2780 cells assessed as loss in body weight at 2 uM/Kg, IV once every 3 days upto 21 days. As to conditions: 504 h, time 21 day.
Data set [13] has as its target T1, von Hippel-Lindau disease tumor suppressor/Nicotinamide phosphoribosyltransferase. Kind of data set: Protac activity at VHL/NAMPT in human A2780 cells assessed as induction of NAMPT degradation measured at 0.005 to 10 microM after 24 hrs by Western blotting analysis. As to conditions: dose 0.005-10 µM. In kind it is cell-based.
Target sequence in this assay (P40337 whole entry, looked up): as the sequence (P40337 whole entry) above
Target sequence in this assay (P43490 whole entry, looked up): as the sequence (P43490 whole entry) above
For data set [14] the target is unchanged. Put plainly: Protac activity at VHL/NAMPT in human A2780 cells assessed as reduction of NAMPT protein level at 10 nM measured after 24 hrs by Western blotting analysis. Format: cell-based.
Target sequence in this assay (P40337 whole entry, looked up): as the sequence (P40337 whole entry) above
Target sequence in this assay (P43490 whole entry, looked up): as the sequence (P43490 whole entry) above

Sequence of Nicotinamide phosphoribosyltransferase (P43490 whole entry): as above

By DC50 is commonly meant the midpoint of the concentration-degradation curve. For orientation: IC50 means the concentration that inhibits the measured activity by half. With `Cc1ncsc1-c1ccc([C@H](C)NC(=O)[C@H]2C[C@H](O)CN2C(=O)[C@@H](NC(=O)CCCCCCCCN2CCN(S(=O)(=O)c3ccc(NC(=O)NCc4cccnc4)cc3)CC2)C(C)(C)C)cc1`, in data set [1], the DC50 is more than 10000 nM. In addition, the IC50 in data set [2] amounted to 110 nM; in the data set on A2780 [3] it was 707 nM.
With `Cc1ncsc1-c1ccc([C@H](C)NC(=O)[C@@H]2C[C@@H](O)CN2C(=O)[C@@H](NC(=O)COCCOCCn2cc(CCN3CCN(S(=O)(=O)c4ccc(NC(=O)NCc5cccnc5)cc4)CC3)nn2)C(C)(C)C)cc1`, the DC50 in [1] came to 50 nM. Besides, the half-inhibitory concentration (IC50) in [2] was 190 nM; in the data set with A2780 [3], 737 nM. For the same compound, the outcome in data set [4] was Active. Besides, the result in [5] was inactive.
Turning to `Cc1ncsc1-c1ccc([C@H](C)NC(=O)[C@@H]2C[C@@H](O)CN2C(=O)[C@@H](NC(=O)CCCCCCCN2CCN(S(=O)(=O)c3ccc(NC(=O)NCc4cccnc4)cc3)CC2)C(C)(C)C)cc1`, the 50% degradation concentration (DC50) in data set [1] was more than 100 nM. Also, the IC50 worked out at 100 nM in [2] and 5.9 nM in the data set with A2780 [3].
With `Cc1ncsc1-c1ccc([C@H](C)NC(=O)[C@@H]2C[C@@H](O)CN2C(=O)[C@@H](NC(=O)COCCOCCOCCOCCOCCN2CCN(S(=O)(=O)c3ccc(NC(=O)NCc4cccnc4)cc3)CC2)C(C)(C)C)cc1`, in data set [1], the DC50 came out at 22 nM. In addition, the values for the IC50 (in data set [2]; in the data set with A2780 [3]) were 190 nM and 133 nM, respectively. Also, in data set [6], the Activity result was “Dose-Dependent Effect”.
Usually TGI stands for the reduction of tumour growth relative to the control group. As for `O=S(=O)(c1ccc(NC(=S)NCc2cccnc2)cc1)N1CCCCC1`, the results for the IC50 in the data set on CT26 and with A2780 [3] were 4600 nM and 130 nM, respectively. For the same compound, the TGI in the data set on A2780 [7] was 49.8%. For the same compound, in data set [8], the Activity entry is listed as “Non-Toxic”.
For the compound `Cc1ncsc1-c1ccc([C@H](C)NC(=O)[C@@H]2C[C@@H](O)CN2C(=O)[C@@H](NC(=O)CCCCCCN2CCN(S(=O)(=O)c3ccc(NC(=O)NCc4cccnc4)cc3)CC2)C(C)(C)C)cc1`, the half-maximal degradation concentration (DC50) in data set [1] was more than 10000 nM. Further, the figures for the IC50 (in data set [2]; in the data set with A2780 [3]) were 120 nM and 96 nM, respectively.
Consider `Cc1ncsc1-c1ccc([C@H](C)NC(=O)[C@@H]2C[C@@H](O)CN2C(=O)[C@@H](NC(=O)COCCN2CCN(S(=O)(=O)c3ccc(NC(=O)NCc4cccnc4)cc3)CC2)C(C)(C)C)cc1`, for which the DC50 in data set [1] was more than 100 nM. Besides, the IC50 is 160 nM in data set [2] and 5510 nM with A2780 [3]. Also, the outcome in [9] was inactive.
Regarding `Cc1ncsc1-c1ccc([C@H](C)NC(=O)[C@@H]2C[C@@H](O)CN2C(=O)[C@@H](NC(=O)COCCOCCOCCN2CCN(S(=O)(=O)c3ccc(NC(=O)NCc4cccnc4)cc3)CC2)C(C)(C)C)cc1`, the DC50 in [1] turned out to be 93 nM. For the same compound, the IC50 in data set [2] turned out to be 130 nM; with A2780 [3], 56 nM. Besides, the Activity entry in data set [6] was “Dose-Dependent Effect”.
Regarding `Cc1ncsc1-c1ccc([C@H](C)NC(=O)[C@@H]2C[C@@H](O)CN2C(=O)[C@@H](NC(=O)COCCOCCOCCOCCn2cc(CCN3CCN(S(=O)(=O)c4ccc(NC(=O)NCc5cccnc5)cc4)CC3)nn2)C(C)(C)C)cc1`, the DC50 in data set [1] was determined as 50 nM. Moreover, the IC50 turned out to be 83 nM in data set [2] and 401 nM with A2780 [3]. Also, the result in [4] was Active. Further, the outcome in data set [5] was inactive.
`CC(=O)N[C@H](C(=O)N1C[C@H](O)C[C@H]1C(=O)N[C@@H](C)c1ccc(-c2scnc2C)cc1)C(C)(C)C`: the IC50 in [2] is more than 2000 nM; in the data set with A2780 [3], more than 100000 nM.
As for `Cc1ncsc1-c1ccc([C@H](C)NC(=O)[C@@H]2C[C@@H](O)CN2C(=O)[C@@H](NC(=O)COCCOCCOCCOCCOCCn2cc(CCN3CCN(S(=O)(=O)c4ccc(NC(=O)NCc5cccnc5)cc4)CC3)nn2)C(C)(C)C)cc1`, in data set [1], the 50% degradation concentration (DC50) stood at 50 nM. Moreover, the values for the IC50 (in [2]; with A2780 [3]) were 970 nM and 477 nM, respectively. The outcome in [4] was Active. Further, in [5], the result was inactive.
`O=C(/C=C/c1cccnc1)NCCCCC1CCN(C(=O)c2ccccc2)CC1` [DAPORINAD]: the Activity result is on record as “Toxic” in [10], “Toxic” in data set [11], “Toxic” in [12] and “Non-Toxic” in data set [8]. In addition, in the data set with A2780 [3], the IC50 was found to be 0.28 nM. Besides, the TGI in the data set with A2780 [7] is 62.9%.
With `Cc1ncsc1-c1ccc([C@H](C)NC(=O)[C@@H]2C[C@@H](O)CN2C(=O)[C@@H](NC(=O)CCCCCCCCCCN2CCN(S(=O)(=O)c3ccc(NC(=O)NCc4cccnc4)cc3)CC2)C(C)(C)C)cc1`, the half-maximal degradation concentration (DC50) in data set [1] was less than 4.6 nM. Also, the IC50 in [2] turned out to be 230 nM; in the data set with A2780 [3] it was 30 nM. Moreover, the Activity entry in [13] is “Dose-Dependent Effect”. In addition, in data set [14], the outcome was Active.
With `Cc1ncsc1-c1ccc([C@H](C)NC(=O)[C@@H]2C[C@@H](O)CN2C(=O)[C@@H](NC(=O)COCCOCCN2CCN(S(=O)(=O)c3ccc(NC(=O)NCc4cccnc4)cc3)CC2)C(C)(C)C)cc1`, the DC50 in data set [1] is more than 100 nM. For the same compound, the IC50 in [2] was 150 nM; in the data set with A2780 [3], 1230 nM. Further, in data set [9], the result was inactive.
As for `Cc1ncsc1-c1ccc([C@H](C)NC(=O)[C@@H]2C[C@@H](O)CN2C(=O)[C@@H](NC(=O)COCCOCCOCCOCCN2CCN(S(=O)(=O)c3ccc(NC(=O)NCc4cccnc4)cc3)CC2)C(C)(C)C)cc1`, the DC50 in data set [1] stood at 19 nM. For the same compound, the IC50 came to 130 nM in data set [2] and 173 nM in the data set with A2780 [3]. In addition, the Activity result in data set [6] is “Dose-Dependent Effect”.
Turning to `Cc1ncsc1-c1ccc([C@H](C)NC(=O)[C@@H]2C[C@@H](O)CN2C(=O)[C@@H](NC(=O)COCCn2cc(CCN3CCN(S(=O)(=O)c4ccc(NC(=O)NCc5cccnc5)cc4)CC3)nn2)C(C)(C)C)cc1`, the DC50 in [1] was 50 nM. In addition, the figures for the IC50 (in data set [2]; in the data set on A2780 [3]) were 120 nM and 433 nM, respectively. In addition, the outcome in data set [4] was Active. Moreover, the result in data set [5] was inactive.
As for `Cc1ncsc1-c1ccc([C@H](C)NC(=O)[C@@H]2C[C@@H](O)CN2C(=O)[C@@H](NC(=O)CCCCCCCCCCCN2CCN(S(=O)(=O)c3ccc(NC(=O)NCc4cccnc4)cc3)CC2)C(C)(C)C)cc1`, in data set [1], the DC50 was 2.4 nM. In addition, the IC50 in data set [2] came out at 310 nM; in the data set with A2780 [3], 30 nM. Besides, the Activity entry in data set [13] was “Dose-Dependent Effect”. Further, the outcome in [14] was Active.
With `Cc1ncsc1-c1ccc([C@H](C)NC(=O)[C@@H]2C[C@@H](O)CN2C(=O)[C@@H](NC(=O)CCCCCCCCCN2CCN(S(=O)(=O)c3ccc(NC(=O)NCc4cccnc4)cc3)CC2)C(C)(C)C)cc1`, the DC50 in data set [1] stood at 1.5 nM. Also, the half-inhibitory concentration (IC50) in data set [2] turned out to be 190 nM; in the data set with A2780 [3], 10 nM. Also, in [13], the Activity result is “Dose-Dependent Effect”. In data set [14], the result was Active.
As to `Cc1ncsc1-c1ccc([C@H](C)NC(=O)[C@@H]2C[C@@H](O)CN2C(=O)[C@@H](NC(=O)COCCOCCOCCn2cc(CCN3CCN(S(=O)(=O)c4ccc(NC(=O)NCc5cccnc5)cc4)CC3)nn2)C(C)(C)C)cc1`, the DC50 in data set [1] amounted to 50 nM. The IC50 in [2] was determined as 94 nM; with A2780 [3], 487 nM. Also, the result in data set [4] was Active. Besides, the outcome in data set [5] was inactive.
